Experimental data reported in PubChem BioAssay AID1963966 (Molecular Pharmacology Branch, DTP, NCI, 2024).

System: 935938-334-R-J1-PDC spheroids with HUVEC/MSC, viability
Assay: Anticancer human tumor 935938-334-R-J1-PDC patient-derived small intestine adenocarcinoma cell line growth inhibition [PI3K]
Conditions: for viability, T/C: stronger effect = lower value
In short: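 Targeted small molecules plus PI3K inhibitors, half-log dose series from Cmax (default top 10 microM), were applied to heterotypic spheroids of cancer cells with HUVEC and MSCs. Viability indicated growth inhibition.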

[1] = curve of first compound, second compound 0.00316 µM
[2] = curve of first compound, second compound 0.01 µM
[3] = curve of first compound, second compound 0.0316 µM
[4] = curve of first compound, second compound 0.1 µM
[5] = curve of first compound, second compound 0.316 µM
[6] = curve of first compound, second compound 1 µM
[7] = second compound 0.00316 µM, first compound 0.0316 µM
[8] = second compound 0.00316 µM, first compound 0.1 µM
[9] = second compound 0.00316 µM, first compound 0.316 µM
[10] = second compound 0.00316 µM, first compound 1 µM
[11] = second compound 0.00316 µM, first compound 3.16 µM
[12] = second compound 0.00316 µM, first compound 10 µM
[13] = second compound 0.01 µM, first compound 0.0316 µM
[14] = second compound 0.01 µM, first compound 0.1 µM
[15] = second compound 0.01 µM, first compound 0.316 µM
[16] = second compound 0.01 µM, first compound 1 µM
[17] = second compound 0.01 µM, first compound 3.16 µM
[18] = second compound 0.01 µM, first compound 10 µM
[19] = second compound 0.0316 µM, first compound 0.0316 µM
[20] = second compound 0.0316 µM, first compound 0.1 µM
[21] = second compound 0.0316 µM, first compound 0.316 µM
[22] = second compound 0.0316 µM, first compound 1 µM
[23] = second compound 0.0316 µM, first compound 3.16 µM
[24] = second compound 0.0316 µM, first compound 10 µM
[25] = second compound 0.1 µM, first compound 0.0316 µM
[26] = second compound 0.1 µM, first compound 0.1 µM
[27] = second compound 0.1 µM, first compound 0.316 µM
[28] = second compound 0.1 µM, first compound 1 µM
[29] = second compound 0.1 µM, first compound 3.16 µM
[30] = second compound 0.1 µM, first compound 10 µM
[31] = second compound 0.316 µM, first compound 0.0316 µM
[32] = second compound 0.316 µM, first compound 0.1 µM
[33] = second compound 0.316 µM, first compound 0.316 µM
[34] = second compound 0.316 µM, first compound 1 µM
[35] = second compound 0.316 µM, first compound 3.16 µM
[36] = second compound 0.316 µM, first compound 10 µM
[37] = second compound 1 µM, first compound 0.0316 µM
[38] = second compound 1 µM, first compound 0.1 µM
[39] = second compound 1 µM, first compound 0.316 µM
[40] = second compound 1 µM, first compound 1 µM
[41] = second compound 1 µM, first compound 3.16 µM
[42] = second compound 1 µM, first compound 10 µM
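Further: compound exposure lasted seven days before viability was read.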
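Wherever viability, T/C is given: percent of vehicle DMSO treated spheroid viability so 100% = untreated.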

`C#Cc1c(F)ccc2cc(O)cc(-c3ncc4c(N5CC6CCC(C5)N6)nc(OCC56CCCN5CC(F)C6)nc4c3F)c12` (centres undefined) + CC(Nc1ccc2c(c1)OCCn1cc(N3C(=O)OCC3C(F)F)nc1-2)C(N)=O was tested, and the IC50 [1] was 3.79 µM, the IC50 [2] was 3.11 µM and the IC50 [3] was 1.87 µM. For the same compound, the IC50 [4] was 0.922 µM, the IC50 [5] was 0.513 µM and the IC50 [6] was 0.102 µM. The viability, T/C [7] was 86.7%, the viability, T/C [8] was 88.4% and the viability, T/C [9] was 76%. For the same compound, the viability, T/C [10] was 67.9%, the viability, T/C [11] was 52.8% and the viability, T/C [12] was 36.1%. It also gave a viability, T/C [13] of 106%, a viability, T/C [14] of 74% and a viability, T/C [15] of 80.1%. For the same compound, the viability, T/C [16] was 69.1%, the viability, T/C [17] was 52% and the viability, T/C [18] was 31.1%. For the same compound, the viability, T/C [19] was 94.7%, the viability, T/C [20] was 80.1% and the viability, T/C [21] was 83.2%. It also gave a viability, T/C [22] of 61.3%, a viability, T/C [23] of 39.7% and a viability, T/C [24] of 28.8%. The viability, T/C [25] was 89.1%, the viability, T/C [26] was 84.1% and the viability, T/C [27] was 47.5%. For the same compound, the viability, T/C [28] was 56.7%, the viability, T/C [29] was 39.7% and the viability, T/C [30] was 28.2%. The viability, T/C [31] was 67.6%, the viability, T/C [32] was 71% and the viability, T/C [33] was 60.7%. The viability, T/C [34] was 34.7%, the viability, T/C [35] was 31.3% and the viability, T/C [36] was 22.8%. It also gave a viability, T/C [37] of 49.5%, a viability, T/C [38] of 51.2% and a viability, T/C [39] of 47.5%. It also gave a viability, T/C [40] of 35.2%, a viability, T/C [41] of 25% and a viability, T/C [42] of 17.2%.

With `C[C@@H](NC(=O)c1ncnc(N)c1Cl)c1ncc(C(=O)Nc2cc(C(F)(F)F)c(Cl)cn2)s1` the viability, T/C (compound 0.0316 µM) was 109% [middle of 4 runs], the viability, T/C (compound 10 µM) was 83.3% [middle of 4 runs] and the IC50 (curve of compound) was over 10 µM.

`C#Cc1c(F)ccc2cc(O)cc(-c3ncc4c(N5CC6CCC(C5)N6)nc(OCC56CCCN5CC(F)C6)nc4c3F)c12` (centres undefined) + COc1c(OCCCN2CCOCC2)ccc2c3n(c(=NC(=O)c4cnc(N)nc4)nc12)CCN3 showed an IC50 [1] of 5.09 µM, an IC50 [2] of 2.25 µM and an IC50 [3] of 0.586 µM. The IC50 [4] was 0.0818 µM, the IC50 [5] was under 0.0316 µM and the IC50 [6] was under 0.0316 µM. It also gave a viability, T/C [7] of 97.9%, a viability, T/C [8] of 91.9% and a viability, T/C [9] of 75.3%. The viability, T/C [10] was 70.9%, the viability, T/C [11] was 57% and the viability, T/C [12] was 40.7%. For the same compound, the viability, T/C [13] was 101%, the viability, T/C [14] was 86.4% and the viability, T/C [15] was 103%. The viability, T/C [16] was 65.2%, the viability, T/C [17] was 46.5% and the viability, T/C [18] was 29.2%. It also gave a viability, T/C [19] of 66.4%, a viability, T/C [20] of 72.4% and a viability, T/C [21] of 53.6%. The viability, T/C [22] was 44.4%, the viability, T/C [23] was 31% and the viability, T/C [24] was 22.5%. It also gave a viability, T/C [25] of 57.5%, a viability, T/C [26] of 46.2% and a viability, T/C [27] of 39.9%. For the same compound, the viability, T/C [28] was 23%, the viability, T/C [29] was 24.2% and the viability, T/C [30] was 21.8%. It also gave a viability, T/C [31] of 34.4%, a viability, T/C [32] of 29.5% and a viability, T/C [33] of 27.7%. For the same compound, the viability, T/C [34] was 25.1%, the viability, T/C [35] was 25.6% and the viability, T/C [36] was 19.9%. The viability, T/C [37] was 27.3%, the viability, T/C [38] was 30.4% and the viability, T/C [39] was 34.1%. For the same compound, the viability, T/C [40] was 24.6%, the viability, T/C [41] was 22.2% and the viability, T/C [42] was 23.9%.

Compound `CNC(=O)c1ccc(N2C(=S)N(c3ccc(C#N)c(C(F)(F)F)c3)C(=O)C2(C)C)cc1F` + COc1c(OCCCN2CCOCC2)ccc2c3n(c(=NC(=O)c4cnc(N)nc4)nc12)CCN3 has an IC50 [1] of over 10 µM, an IC50 [2] of over 10 µM and an IC50 [3] of over 10 µM. It also gave an IC50 [4] of 0.0694 µM, an IC50 [5] of under 0.0316 µM and an IC50 [6] of under 0.0316 µM. The viability, T/C [7] was 89.8%, the viability, T/C [8] was 76.3% and the viability, T/C [9] was 74.8%. It also gave a viability, T/C [10] of 66.8%, a viability, T/C [11] of 103% and a viability, T/C [12] of 93.4%. It also gave a viability, T/C [13] of 87.6%, a viability, T/C [14] of 96.8% and a viability, T/C [15] of 102%. The viability, T/C [16] was 85.8%, the viability, T/C [17] was 104% and the viability, T/C [18] was 92.7%. The viability, T/C [19] was 84.5%, the viability, T/C [20] was 85.3% and the viability, T/C [21] was 82.1%. For the same compound, the viability, T/C [22] was 81%, the viability, T/C [23] was 76.6% and the viability, T/C [24] was 66.6%. For the same compound, the viability, T/C [25] was 62.9%, the viability, T/C [26] was 42.6% and the viability, T/C [27] was 49.1%. The viability, T/C [28] was 44.5%, the viability, T/C [29] was 42.9% and the viability, T/C [30] was 40.2%. The viability, T/C [31] was 43.3%, the viability, T/C [32] was 29.4% and the viability, T/C [33] was 31.3%. It also gave a viability, T/C [34] of 32.4%, a viability, T/C [35] of 36.7% and a viability, T/C [36] of 24.4%. It also gave a viability, T/C [37] of 34.9%, a viability, T/C [38] of 30.6% and a viability, T/C [39] of 38.3%. It also gave a viability, T/C [40] of 34.2%, a viability, T/C [41] of 29.3% and a viability, T/C [42] of 24.8%.
